Assay results: the supplement of paper PMC6206229
Values after ≈ are worked out from the molar mass of the structure shown.

Experiments:
[1] = test system: Staphylococcus aureus ATCC 700699 (MRSA); experiment: minimum inhibitory concentration; extreme values may be limits of the assay
In short: (§1)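 Methicillin-susceptible and methicillin-resistant Staphylococcus aureus were tested by broth microdilution in 96-well plates, following CLSI guidance with a resazurin redox read-out. Compounds were tested from 0 to 100 µM and incubated with bacteria for 24 h at 37°C, then 30 µl of 0.015% resazurin was added for 2–4 h, with positive controls on each plate. The minimum inhibitory concentration was the lowest concentration that stayed blue rather than turning pink. Runs were done at least twice in triplicate.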

[2] = test system: Staphylococcus aureus ATCC 29213 (MSSA); experiment: as above
In short: as §1

| Compound | minimum inhibitory concentration [1] | minimum inhibitory concentration [2] |
| --- | --- | --- |
| O=C(Nc1nc(-c2ccccn2)cs1)C1CC1c1ccccc1F (stereo unspecified) | > 50 µM | > 50 µM |
| CC(C)(C)CN1C(=O)C(c2ccccc2)(c2ccccc2)N=C1N | > 50 µM | > 50 µM |
| NCCCC(N)(C(=O)O)C(F)F (stereo unspecified) | > 50 µM | > 50 µM |
| Cc1cc(C)n2nc(C(=O)Nc3cc(C(F)(F)F)ccc3N3CCOCC3)nc2n1 | > 50 µM | > 50 µM |
| O=C(c1ccco1)N(CCCn1ccnc1)c1nc2c(Cl)cccc2s1 | > 50 µM | > 50 µM |
| C[C@H](c1ccc2c(c1)CCCC2)N(C)c1ncc2c(N)nc(N)nc2n1 | 50 µM (≈ 17.5 µg/mL) | 50 µM (≈ 17.5 µg/mL) |
| Cc1ccc2[nH]c(C3CCCNC3)c(-c3ccncc3)c2c1 (stereo unspecified) | > 50 µM | > 50 µM |
| O=C(Nc1ccc(N2CCNCC2)nc1)c1oc(-c2ccccc2)nc1C(F)(F)F | > 50 µM | > 50 µM |
| CC(=O)NC[C@H]1CN(c2ccc(N3CCSCC3)c(F)c2)C(=O)O1 | 3.12 µM (≈ 1.1 µg/mL) | 6.25 µM (≈ 2.21 µg/mL) |
| COc1cc(NC(=O)Cc2nn(C)c(=O)c3ccccc23)ccc1Cl | > 50 µM | > 50 µM |
| Clc1ccc(CN2CCN(C3=NCCN3)CC2)cc1Cl | > 50 µM | > 50 µM |
| CC1CCCN(C(=O)C(C)Nc2cc(Cl)ccc2N2CCOCC2)C1 (stereo unspecified) | > 50 µM | > 50 µM |
| CCCCCCCCCCCCCCCCOP(=O)([O-])OCC[N+](C)(C)C | > 50 µM | > 50 µM |
| N#Cc1ccc(-c2ccc(OCC(N)=O)cc2)cc1 | > 50 µM | > 50 µM |
| CC(C)(C)c1cc(C(=O)Nc2cccnc2)cc(C(=O)Nc2cccnc2)c1 | > 50 µM | > 50 µM |
| CCOc1ccc(OCC(=O)Nc2cc(C)cc(C)c2)cc1 | > 50 µM | > 50 µM |
| CCC(C)NC(=O)c1ccc(NC(=O)C2(c3ccccc3)CCCC2)cc1 (stereo unspecified) | > 50 µM | > 50 µM |
| CCc1ccc(C(NCc2nc(N)nc(N(C)C)n2)C(C)C)cc1 (stereo unspecified) | > 50 µM | > 50 µM |
| CC1COC2(CCN(c3nc(=O)c4cc(C(F)(F)F)cc([N+](=O)[O-])c4s3)CC2)O1 (stereo unspecified) | > 50 µM | > 50 µM |
| CO/C=C(/C(=O)OC)c1ccccc1Oc1cc(Oc2ccccc2C#N)ncn1 | > 50 µM | > 50 µM |
| C[C@H]1c2cccc(O)c2C(=O)C2=C(O)[C@]3(O)C(=O)C(C(N)=O)=C(O)[C@@H](N(C)C)[C@@H]3[C@@H](O)[C@@H]21 | 25 µM (≈ 11.1 µg/mL) | 0.781 µM (≈ 0.347 µg/mL) |
| Nc1ncnc2[nH]nc(Cc3cccc4ccccc34)c12 | > 50 µM | > 50 µM |
| CC(C)(C)OC(=O)N1CCN(c2nccc(-c3ccc(-c4ccc(Cl)cc4)s3)n2)CC1 | > 50 µM | > 50 µM |
| CS(=O)(=O)N1CCC(CCn2nc(Cc3cccc4ccccc34)c3c(N)ncnc32)CC1 | > 50 µM | > 50 µM |
| CC(C)(C)c1cnc(NC(=O)c2ccccc2O)s1 | > 50 µM | > 50 µM |
| O=C(COc1cccc(F)c1)Nc1nc(-c2ccccn2)cs1 | > 50 µM | > 50 µM |
| O=C(Nc1ccccc1-c1nc2c(C(=O)O)cccc2o1)c1ccccc1 | > 50 µM | > 50 µM |

| Compound | minimum inhibitory concentration [1] | minimum inhibitory concentration [2] |
| --- | --- | --- |
| CN(C)CCNC(=O)N1CCCN(c2ncnc3cc(-c4ccccc4)sc23)CC1 | > 50 µM | > 50 µM |
| O=C(C1CCCCC1)N1CC(=O)N2CCc3ccccc3C2C1 (stereo unspecified) | > 50 µM | > 50 µM |
| Clc1ccc(Cl)c(CO[C@H]2CCCC[C@@H]2n2ccnc2)c1 | > 50 µM | > 50 µM |
| Nc1ncnc2c1ncn2[C@@H]1O[C@H](COS(=O)(=O)NC(=O)c2ccccc2O)[C@@H](O)[C@H]1O | > 50 µM | > 50 µM |
| COc1nc2ccc(Br)cc2cc1[C@@H](c1ccccc1)[C@@](O)(CCN(C)C)c1cccc2ccccc12 | > 50 µM | > 50 µM |
| O=C(NCCc1ccn(-c2ccccc2)n1)C1CCCCC1 | > 50 µM | > 50 µM |
| COC(=O)C1=C(C)NC(C)=C(C(=O)OC(C)C)C1c1cccc2nonc12 (stereo unspecified) | > 50 µM | > 50 µM |
| Cc1cc(OCC(=O)NCc2ccccc2)c2cc(Br)ccc2n1 | > 50 µM | > 50 µM |
| Cc1ccc2c(c1C)NC(=O)C21NN=C(c2ccccc2)S1 (stereo unspecified) | > 50 µM | > 50 µM |
| Cc1ccc(C(=O)Nc2ccc(S(=O)(=O)O)c3cc(S(=O)(=O)O)cc(S(=O)(=O)O)c23)cc1NC(=O)c1cccc(NC(=O)Nc2cccc(C(=O)Nc3cc(C(=O)Nc4ccc(S(=O)(=O)O)c5cc(S(=O)(=O)O)cc(S(=O)(=O)O)c45)ccc3C)c2)c1 | > 50 µM | > 50 µM |
| C[C@]1(COc2ccc(N3CCC(Oc4ccc(OC(F)(F)F)cc4)CC3)cc2)Cn2cc([N+](=O)[O-])nc2O1 | > 50 µM | > 50 µM |
| Cc1cccc(Cn2ccc(NC(=O)c3ccc4c(c3)OCO4)n2)c1 | > 50 µM | > 50 µM |
| Cc1cc(Cl)ccc1NC(=O)CCc1ccc(S(=O)(=O)NCC(C)C)cc1 | > 50 µM | > 50 µM |
| O=C(NCc1ccco1)N1CCN(Cc2ccc(Cl)s2)CC1 | > 50 µM | > 50 µM |
| COc1cc(CN2CCC3(C=Cc4ccccc43)CC2)cc2c1OCO2 | > 50 µM | > 50 µM |
| Cn1ncc2c(N3CCOCC3)nc(NCCc3c[nH]c4ccccc34)nc21 | > 50 µM | > 50 µM |
| O=C(NCCc1ccccc1)c1cc(-c2cccnc2)cnc1NCC1CC1 | > 50 µM | > 50 µM |
| Cc1[nH]c2ccccc2c1C(c1cccs1)N1CCN(C)CC1 (stereo unspecified) | 50 µM (≈ 16.3 µg/mL) | 50 µM (≈ 16.3 µg/mL) |
| CC(C)(C)n1nc(Cc2cccc3ccccc23)c2c(N)ncnc21 | > 50 µM | > 50 µM |
| c1ccc(Oc2ccc(-c3cc(N4CCNCC4)[nH]n3)cc2)cc1 | > 50 µM | > 50 µM |
| CN1CCCC1CCO[C@](C)(c1ccccc1)c1ccc(Cl)cc1 (stereo partly specified) | 50 µM (≈ 17.2 µg/mL) | > 50 µM |
| O=C(Nc1ccc(F)c(-c2nc3cc(-c4ccccc4)cnc3[nH]2)c1)N1CCCC1 | > 50 µM | > 50 µM |
| O=C(c1ccc(F)cc1)N(CCNc1ccccc1)c1ccccc1 | > 50 µM | > 50 µM |
| CCc1cc(=O)n(C)c(SC(C)C(=O)Nc2ccc(F)cc2)n1 (stereo unspecified) | > 50 µM | > 50 µM |
| CCN(CC)CCCCCCNc1cc(OC)cc2c(C)ccnc12 | > 50 µM | > 50 µM |
| Oc1c(I)cc(I)c2cccnc12 | 50 µM (≈ 19.8 µg/mL) | > 50 µM |
